Experimental data reported in patent publication US5270302A, “Derivatives of tetrapeptides as CCK agonists” (priority 1991, dated 1993).
Where a name gives a salt, the structure may show the parent alone. Read-outs that look alike come from different tables or passages of the source. *1 amine or outer side, *2 acyl side, *3 side chain or, on linkers, in order; H or OH if unused. Where a SMILES comes first, the peptide text is derived from it. Side-chain parts run from the residue outwards. [ ]: non-standard residue; d: D form. The star is where a group is joined. ξ: configuration not given here. ξαMeW = CC(N)(Cc1c[nH]c2ccccc12)C(=O)O; Adoc = O=C(OC12CC3CC(CC(C3)C1)C2)*; NMeF = CN[C@@H](Cc1ccccc1)C(=O)O; NMeD = CN[C@@H](CC(=O)O)C(=O)O; NH(2-Me-phenyl) = Cc1ccccc1N*; X9 = CN(C)c1ccc(C=CC(=O)*)cc1; βNA = c1ccc2cc(N*)ccc2c1; Cbz = O=C(OCc1ccccc1)*; Boc = CC(C)(C)OC(=O)*; CO = O=C([*:1])[*:2]; Tfa = O=C(C(F)(F)F)*; X6 = O=C(Oc1ccccc1)*

Legend:
[1] = molecular target: T1, Type-B CCK receptor (Cavia porcellus, UniProt H0VZC5); assay: Radioligand binding of [125I]BH-CCK-8 in guinea pig cerebral cortical membrane preparations
T1 construct: Cortical and pancreatic membranes were prepared as described; from tissue; host or cells: guinea pig cerebral cortex membranes
T1 sequence (H0VZC5 1-426): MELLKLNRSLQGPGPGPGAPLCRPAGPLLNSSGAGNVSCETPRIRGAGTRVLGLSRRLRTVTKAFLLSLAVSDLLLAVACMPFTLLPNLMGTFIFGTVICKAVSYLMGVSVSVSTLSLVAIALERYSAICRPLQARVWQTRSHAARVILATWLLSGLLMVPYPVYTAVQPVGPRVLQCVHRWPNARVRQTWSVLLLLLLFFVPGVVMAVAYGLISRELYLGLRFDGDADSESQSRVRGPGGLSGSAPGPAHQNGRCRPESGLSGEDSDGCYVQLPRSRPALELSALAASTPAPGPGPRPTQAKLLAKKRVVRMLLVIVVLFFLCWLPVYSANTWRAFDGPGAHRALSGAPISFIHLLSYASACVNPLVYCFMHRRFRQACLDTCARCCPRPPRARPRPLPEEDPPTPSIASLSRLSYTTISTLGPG
Method in brief: (§1)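 Membranes came from male guinea pig pancreas (type A) or cerebral cortex (type B) and were resuspended in pH 7.4 HEPES-EGTA-salt buffer containing bestatin and phosphoramidon. Test compounds competed with [125I]BH-CCK-8 in 0.1% BSA: cortex 150 min at 30 °C, pancreas 150 min at 37 °C. Reactions ended by filtration; IC50 from Hill analysis.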

[2] = molecular target: T2, Type-A CCK receptor (Cavia porcellus, UniProt Q63931); assay: Radioligand binding of [125I]BH-CCK-8 in guinea pig pancreatic membrane preparations
T2 construct: Cortical and pancreatic membranes were prepared as described; from tissue; host or cells: guinea pig pancreas membranes
T2 sequence (Q63931 1-430): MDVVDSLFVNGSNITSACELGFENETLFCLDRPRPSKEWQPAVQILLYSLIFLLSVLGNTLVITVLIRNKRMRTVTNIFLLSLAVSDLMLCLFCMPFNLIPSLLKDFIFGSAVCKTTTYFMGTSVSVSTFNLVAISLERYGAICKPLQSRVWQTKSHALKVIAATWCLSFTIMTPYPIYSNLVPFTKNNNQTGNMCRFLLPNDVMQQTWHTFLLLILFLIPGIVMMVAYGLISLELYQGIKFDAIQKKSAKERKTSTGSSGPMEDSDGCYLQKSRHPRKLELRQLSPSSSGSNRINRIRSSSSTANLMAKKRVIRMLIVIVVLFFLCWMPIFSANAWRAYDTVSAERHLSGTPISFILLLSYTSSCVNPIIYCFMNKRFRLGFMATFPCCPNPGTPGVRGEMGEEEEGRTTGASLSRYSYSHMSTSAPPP
Method in brief: as §1

[3] = system: rats; assay: Feeding effects of acute administration of CCK agonists in rats (liquid diet); type: in vivo; conditions: i.p., acute (1 day)
From the text: Feeding Effects of Acute Administration of CCK Agonists in Rats
The experimental paradigm used in the above-mentioned chronic feeding studies was employed to establish dose reponses for CCK agonists of this invention on an acute (1 day) basis. Following an 8-day diet acclimation period, the rats were weighed and injected with vehicle. CCK-8 or test compound (see Table 7) at doses ranging from 1-1000 nmol/kg (i.p.). Six to ten minutes later, the rats were presented with the diet and intakes were recorded. No injections were administered prior to the P.M. feeding. Mean A.M. intakes as a percent of control were plotted versus log dose (nm/kg) to establish the dose response curve.

[4] = molecular target: T3, guinea pig acini (Cavia porcellus, UniProt Q63931); assay: Amylase release assay in guinea pig pancreatic acini; type: cell-based; conditions: 30 minutes at 37° C., reference CCK-8 3×10^-10 M
T3 sequence (Q63931 1-430): T2 sequence (Q63931 1-430)
Description: Protocol for Amylase Release Assay
Guinea Pig Acini Preparation
Pancreas was dissected out and connective tissues and blood vessels were removed. The pancreas was cut into small pieces (2 mm) by a scissor and placed in a 15 mL conical plastic tube containing 2.5 mL of Krebs-Ringer HEPES (KRH) buffer plus 400 units per mL of collagenase. […] The buffer was supplemented with 1% MEM vitamins, 1% MEM amino acids and 0.001% aprotinin (pancreatic basic trypsin inhibitor). […] The supernatant was discarded and 6 mL of the KRH was added to the cell pellet. […] This wash procedure was repeated once. The cell pellet from the last centrifugation step was then resuspended in 15 mL of KRH containing 0.1% BSA. […] The filtrate, containing the acini, was centrifuged at 50×g for 3 minutes. The acini were then resuspended in 5 mL of KRH-BSA buffer for 30 minutes at 37° C. under 100% O2, with a change of fresh buffer at 15 minutes.
After the 30 minutes incubation time, the acini was resuspended in 100 volumes of KRH-BSA buffer, containing 3 μM phosphoramidon and 100 μM bestatin. […] Amylase activity in the supernatant and the cell pellet were separately determined after appropriate dilutions in 0.1% Triton X-100® (a non-ionic detergent available from Sigma Chemical Co.), 20 mM NaH2 PO4, pH 7.4, by Abbott Amylase A-gent® test using the Abbott Bichromatic Analyzer 200.

[5] = system: guinea pig gallbladder; conditions: read-out: EC50 for contraction; isolated guinea pig gallbladder, 37° C.; 50% of the compound's own maximal contraction
Description: Guinea Pig Gallbladder Contraction
Gallbladders were obtained from male guinea pigs (250-300 gm). The bile was emptied by a small incision and the gallbladder was suspended in an organ bath. The tissue was maintained at 37° C., suspended in Krebs-Ringer buffer (mM: NaCl, 118; KCl, 4.7; CaCl2, 2.5; MgCl2, 1.2; NaH2 PO4, 1.2; NaHCO3, 25; choline chloride, 30 mM; glucose, 11) and bubbled with 95% O2 -5% CO2. Isometric contractions were recorded with a Grass polygraph. Baseline tension was set at 0.3 grams. After equilibration for approximately 30 minutes, CCK-8 (20 nM) was introduced and tensions were recorded. After reaching maximal contractions (about 5 minutes), the drug was washed out by overflow. The CCK-8 addition was repeated twice to ensure constant force of contraction.

[6] = guinea pig cortical membranes, 30° C., 150 minutes, read-out: IC50 (nM) 125I-BH-CCK-8 Type-B receptor
[7] = guinea pig pancreatic membranes, 37° C., 150 min, read-out: IC50 (nM) 125I-BH-CCK-8 Type-A receptor
[8] = IC50 (nM) 125I-BH-CCK-8 Type-B receptor, guinea pig cortical membranes, 30° C., 150 minutes
[9] = IC50 (nM) 125I-BH-CCK-8 Type-A receptor, guinea pig pancreatic membranes, 37° C., 150 min

Cc1ccccc1NC(=O)NCCCC[C@H](NC(=O)C(Cc1c[nH]c2ccccc12)C(N)=O)C(=O)N[C@@H](CC(=O)O)C(=O)N(C)[C@@H](Cc1ccccc1)C(N)=O (stereo partly shown) [Example 106, (2-Aminocarbonyl-3-(3-indolyl)propionyl)-Lys(ε-N-(2-methylphenyl)aminocarbonyl)-Asp-(NMe)PheNH2]
IC50 [1, 6]: > 10000 nM | IC50 [2, 7]: 13 nM | ED25, suppression of feeding (liquid diet) [3]: 6.9 nmol/kg | ED50, dose required to decrease mean A.M. food intake by 50% [3]: 58.5 nmol/kg

CCOC(=O)C(C)(Cc1c[nH]c2ccccc12)C(=O)N[C@@H](CCCCNC(=O)Nc1ccccc1C)C(=O)N[C@@H](CC(=O)O)C(=O)N(C)[C@@H](Cc1ccccc1)C(N)=O (stereo partly shown) [Example 107, (2-Carboethoxy-2-methyl-3-(3-indolyl)propionyl)-Lys(ε-N-(2-methylphenyl)amino-carbonyl)-Asp-(NMe)PheNH2]
IC50 [1, 6]: 1400 nM | IC50 [2, 7]: 21 nM | ED25, suppression of feeding (liquid diet) [3]: 3.7 nmol/kg | ED50, dose required to decrease mean A.M. food intake by 50% [3]: 26.1 nmol/kg

Cc1ccccc1NC(=O)NCCCC[C@H](NC(=O)C(C)(N)Cc1c[nH]c2ccccc12)C(=O)N[C@@H](CC(=O)O)C(=O)N[C@@H](Cc1ccccc1)C(N)=O (stereo partly drawn) [Example 97, D,L-(α-Methyl)Trp-Lys(ε-N-(2-methylphenyl)aminocarbonyl)-Asp-PheNH2] (H-[ξαMeW]K([CO-NH(2-Me-phenyl)])DF-NH2)
IC50 [1, 8]: 2600 nM | IC50 [2, 9]: 11 nM | ED25, suppression of feeding (liquid diet) [3]: 1.8 nmol/kg | ED50, dose required to decrease mean A.M. food intake by 50% [3]: 9.4 nmol/kg

t-BOC-Trp-Nle(6-((2-methylphenyl)aminocarbonyl)oxy)-Asp-(NMe)PheNH2 [Example 114]
EC50 [4]: 0.003 µM

Cc1ccccc1NC(=O)NCCCC[C@H](NC(=O)[C@H](Cc1c[nH]c2ccccc12)NC(=O)OC(C)(C)C)C(=O)N(C)[C@@H](CC(=O)O)C(=O)N(C)[C@@H](Cc1ccccc1)C(N)=O [Example 61, t-BOC-Trp-Lys(ε-N-(2-methylphenyl)aminocarbonyl)(NMe)Asp-(NMe)PheNH2] (Boc-WK([CO-NH(2-Me-phenyl)])[NMeD][NMeF]-NH2)
IC50 [1]: 10000 nM | IC50 [2]: 4.8 nM | ED25, suppression of feeding (liquid diet) [3]: 0.6 nmol/kg | ED50, dose required to decrease mean A.M. food intake by 50% [3]: 2.6 nmol/kg

CN(C)c1ccc(C=CC(=O)NCCCC[C@H](NC(=O)[C@H](Cc2c[nH]c3ccccc23)NC(=O)OC(C)(C)C)C(=O)N[C@@H](CC(=O)O)C(=O)N[C@@H](Cc2ccccc2)C(N)=O)cc1 [Example 13, t-BOC-Trp-Lys(ε-N-(4-(dimethylamino)cinnamoyl))-Asp-PheNH2] (Boc-WK(X9)DF-NH2)
IC50 [1, 6]: 2100 nM | IC50 [2, 7]: 120 nM

CC(C)(C)OC(=O)N[C@@H](Cc1c[nH]c2ccccc12)C(=O)N[C@@H](CCCCNC(=O)Nc1ccc2ccccc2c1)C(=O)N[C@@H](CC(=O)O)C(=O)N[C@@H](Cc1ccccc1)C(N)=O [Example 44, t-BOC-Trp-Lys(ε-N-(β-naphthyl)aminocarbonyl)-Asp-PheNH2] (Boc-WK([CO-βNA])DF-NH2)
IC50 [1]: 3200 nM | IC50 [2, 7]: 16 nM

Cc1ccccc1NC(=O)NCCCC[C@H](NC(=O)[C@H](Cc1c[nH]c2ccccc12)NC(=O)OCc1ccccc1)C(=O)N[C@@H](CC(=O)O)C(=O)N(C)[C@@H](Cc1ccccc1)C(N)=O [Example 76, Benzyloxycarbonyl-Trp-Lys(ε-N-(2-methylphenyl)aminocarbonyl)-Asp-(NMe)PheNH2] (Cbz-WK([CO-NH(2-Me-phenyl)])D[NMeF]-NH2)
IC50 [1]: 6400 nM | IC50 [2]: 18 nM

Cc1ccccc1NC(=O)NCCCC[C@H](NC(=O)[C@H](Cc1c[nH]c2ccccc12)NC(=O)Oc1ccccc1)C(=O)N[C@@H](CC(=O)O)C(=O)N(C)[C@@H](Cc1ccccc1)C(N)=O [Example 79, Phenoxycarbonyl-Trp-Lys(ε-N-(2-methylphenyl)aminocarbonyl)-Asp-(NMe)PheNH2] (X6-WK([CO-NH(2-Me-phenyl)])D[NMeF]-NH2)
IC50 [1]: 7200 nM | IC50 [2]: 10 nM

Cc1ccccc1NC(=O)NCCCC[C@H](NC(=O)[C@H](Cc1c[nH]c2ccccc12)NC(=O)C(F)(F)F)C(=O)N(C)[C@@H](CC(=O)O)C(=O)N[C@@H](Cc1ccccc1)C(N)=O [Example 88A, trifluoroacetyl-Trp-Lys(ε-N-(2-methylphenyl)aminocarbonyl)-(NMe)Asp-PheNH2] (Tfa-WK([CO-NH(2-Me-phenyl)])[NMeD]F-NH2)
IC50 [1, 8]: > 10000 nM | IC50 [2, 9]: 4.4 nM

Cc1ccccc1NC(=O)NCCCC[C@H](NC(=O)[C@H](Cc1c[nH]c2ccccc12)NC(=O)OC12CC3CC(CC(C3)C1)C2)C(=O)N[C@@H](CC(=O)O)C(=O)N(C)[C@@H](Cc1ccccc1)C(N)=O [Example 75, 1-Adamantyloxycarbonyl-Trp-Lys(ε-N-(2-methylphenyl)aminocarbonyl)-Asp-(NMe)PheNH2] (Adoc-WK([CO-NH(2-Me-phenyl)])D[NMeF]-NH2)
IC50 [1]: 10000 nM | IC50 [2]: 17 nM

Cc1ccccc1NC(=O)NCCCC[C@H](NC(=O)CCc1c[nH]c2ccccc12)C(=O)N(C)[C@@H](CC(=O)O)C(=O)N(C)[C@@H](Cc1ccccc1)C(N)=O [Example 102]
IC50 [1, 6]: 2500 nM | IC50 [2, 7]: 14 nM

CC(=O)N[C@@H](Cc1c[nH]c2ccccc12)C(=O)N[C@@H](CCCCNC(=O)Nc1ccccc1C)C(=O)N(C)[C@@H](CC(=O)O)C(=O)N[C@@H](Cc1ccccc1)C(N)=O [Example 86, Acetyl-Trp-Lys(ε-N-(2-methylphenyl)aminocarbonyl)-(NMe)Asp-PheNH2] (Ac-WK([CO-NH(2-Me-phenyl)])[NMeD]F-NH2)
IC50 [1, 8]: > 10000 nM | IC50 [2, 9]: 6.7 nM

Cc1ccccc1NC(=O)NCCCC[C@H](NC(=O)[C@H](Cc1c[nH]c2ccccc12)NC(=O)OC(C)(C)C)C(=O)N[C@@H](CC(=O)O)C(=O)N(C)[C@@H](Cc1ccccc1)C(N)=O [Example 33, t-BOC-Trp-Lys(ε-N-(2-methylphenyl)aminocarbonyl)-Asp-(NMe)PheNH2] (Boc-WK([CO-NH(2-Me-phenyl)])D[NMeF]-NH2)
EC50 [5]: 0.01 µM
